This test deals with Intestinal-type alkaline phosphatase (Homo sapiens, UniProt P09923). As to the kind of experiment: human IAP inhibitors, dose response, biochemical, luminescent, uHTS hits, set 2 (AID 488793).

Four molecules from BindingDB's records for doi:10.7270/Q2154FH8 (Burnham Center For Chemical Genomics, 2010) can be followed below.

Each structure is given as a SMILES string. pIC50: −log10 of the molar value.

Intestinal-type alkaline phosphatase, sequence (P09923 whole entry): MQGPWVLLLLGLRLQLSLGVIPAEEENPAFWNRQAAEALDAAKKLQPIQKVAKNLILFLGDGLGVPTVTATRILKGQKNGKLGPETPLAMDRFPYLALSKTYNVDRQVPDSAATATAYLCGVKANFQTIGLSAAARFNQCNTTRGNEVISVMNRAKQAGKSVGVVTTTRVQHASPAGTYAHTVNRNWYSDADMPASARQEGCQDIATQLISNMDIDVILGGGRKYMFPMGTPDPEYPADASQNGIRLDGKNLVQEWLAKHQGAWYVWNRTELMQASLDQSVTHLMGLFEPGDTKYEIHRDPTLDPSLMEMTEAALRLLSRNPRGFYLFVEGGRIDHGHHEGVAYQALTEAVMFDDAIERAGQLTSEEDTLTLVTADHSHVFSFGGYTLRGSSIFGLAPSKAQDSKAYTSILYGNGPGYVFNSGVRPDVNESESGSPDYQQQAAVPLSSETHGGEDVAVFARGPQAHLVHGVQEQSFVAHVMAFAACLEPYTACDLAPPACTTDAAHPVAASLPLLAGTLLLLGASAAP

In turn, `CC(N=Nc1ccccc1[N+](=O)[O-])c1ccc([N+](=O)[O-])cc1` (centres undefined) gave a pIC50 of 4.11. `C=c1[nH]n(Cc2ccccc2)c(=O)c1=Cc1ccc(N(C)C)cc1` [(4Z)-4-[[4-(dimethylamino)phenyl]methylidene]-5-methyl-2-(phenylmethyl)-3-pyrazolone] had a pIC50 of 4.40. With `O=C(O)[C@H]1O[C@@H](Oc2c(-c3ccc(O)c(O)c3)oc3cc(O)cc(=O)c-3c2O)[C@H](O)[C@@H](O)[C@@H]1O` [quercetin glucuronide] the figure was 6.05.

In turn, `CCOC1=CC(=Cc2c(C)[nH]oc2=O)C=C(Br)C1=O` [4-[(Z)-(3-bromo-5-ethoxy-4-oxo-1-cyclohexa-2,5-dienylidene)methyl]-3-methyl-2H-isoxazol-5-one] gave a pIC50 of 4.45. This pIC50 is 1.60 log units lower than that of the molecule before.
